Results on 13 molecules are retold here after article PMC12239106, “Discovery of conformation constrained tetracyclic compounds as potent chitinase OfChi-h inhibitors with a novel binding mode” (Journal of Enzyme Inhibition and Medicinal Chemistry, 2025).

In one assay the target is T1, SmChiA (Serratia marcescens, UniProt P07254).
T1 construct: made in house; host or cells: Escherichia coli BL21(DE3)
The assay is described as follows: Chitinase inhibition assay and Ki determination (MU-β-(GlcNAc)2 substrate, Dixon plot), SmChiA. The note with it: for Ki: Dixon plot, three substrate concentrations; for inhibition at 10 µM: 10 μM inhibitor, 10 nM enzyme, 4 μM MU-β-(GlcNAc)2, pH 6.0, 30 °C, 20 min. The format is biochemical. The protocol:
(§1) SmChiA was expressed in Escherichia coli BL21(DE3), HsChit1 and OfChi-h were overexpressed in Pichia pastoris GS115. The Escherichia coli BL21(DE3) strain was purchased from TaKaRa Biotech (Dalian, […]) while the Pichia pastoris GS115 strain was obtained from Invitrogen (Thermo Fisher Scientific, CA, USA), both of which were cultured and handled according to the protocols provided by suppliers. All chitinases were purified using immobilised metal ion affinity chromatography as previously described. Briefly, solid ammonium sulphate was slowly added to the culture supernatant to achieve 75% saturation. After incubation at 4 °C for 24 h, the precipitated proteins were collected by centrifugation at 12,000 × g for 30 min at 4 °C. The pellet was resuspended thoroughly in buffer A (20 mM sodium phosphate, 0.5 M sodium chloride, pH 7.4), and the solution was centrifuged again at 12,000 × g for 15 min at 4 °C to remove insoluble material. The clarified supernatant was loaded onto a 5 ml HisTrap™ Crude affinity column (GE Healthcare) that had been pre-equilibrated with buffer A. The column was subsequently washed with buffer A containing 75 mM imidazole to remove non-specifically bound proteins. Recombinant chitinases were eluted using buffer A containing 250 mM imidazole. The expressed proteins were quantified using a BCA protein assay kit (TaKaRa Biotech, China). And their purities were determined by SDS-PAGE and found to be >95% in all cases.
(§2) Chitinase activities for SmChiA, HsChit1 and OfChi-h were determined using 4-methylumbelliferyl-N, N′-diacetyl-β-D-chitobioside (MU-β-(GlcNAc)2) (purchased from Sigma) as a substrate. The final reaction mixture volume used for inhibitor screening was 100 μL, consisting of 10 nM enzyme, 4 μM MU-β-(GlcNAc)2, 10 μM inhibitor, and 2% DMSO in a 20 mM sodium phosphate buffer (pH 6.0). The reaction in the absence of inhibitor was used as a positive control. After incubation at 30 °C for 20 min, 0.5 M sodium carbonate was added to the reaction mixture, and the fluorescence produced by the released 4-MU was quantified with a Varioskan Flash microplate reader (Thermo Fisher Scientific) using excitation and emission wavelengths of 360 and 450 nm, respectively. Experiments were performed in triplicate unless specified otherwise. For Ki value determination, the inhibitor concentration was varied in the above reaction, and different concentrations of substrate (2–8 μM) were used. The amount of released 4-MU was quantified as above, and the Ki value and the mode of inhibition were determined using the Dixon plot.

Assay [1] has as its target T2, OfChi-h (Ostrinia furnacalis, UniProt Q4AE59).
T2 construct: made in house; host or cells: Pichia pastoris GS115
The note with it: read-out: OfChi-h Ki; cited from earlier work.

Assay [2] addresses T2, OfChi-h. Briefly: Chitinase inhibition assay and Ki determination (MU-β-(GlcNAc)2 substrate, Dixon plot), OfChi-h. It counts as biochemical. As to conditions: for inhibition at 10 µM: 10 μM inhibitor, 10 nM enzyme, 4 μM MU-β-(GlcNAc)2, pH 6.0, 30 °C, 20 min; for Ki: Dixon plot, substrate 2–8 μM. On the procedure:
as §1, §2

A further assay has as its target T3, HsChit1 (Homo sapiens, UniProt Q13231).
T3 construct: made in house; host or cells: Pichia pastoris GS115
Briefly: Chitinase inhibition assay and Ki determination (MU-β-(GlcNAc)2 substrate, Dixon plot), HsChit1. The note with it: three substrate concentrations. The format is biochemical. The protocol: SmChiA was expressed in Escherichia coli BL21(DE3), HsChit1 and OfChi-h were overexpressed in Pichia pastoris GS115. The Escherichia coli BL21(DE3) strain was purchased from TaKaRa Biotech (Dalian, […]) while the Pichia pastoris GS115 strain was obtained from Invitrogen (Thermo Fisher Scientific, CA, USA), both of which were cultured and handled according to the protocols provided by suppliers. All chitinases were purified using immobilised metal ion affinity chromatography as previously described. Briefly, solid ammonium sulphate was slowly added to the culture supernatant to achieve 75% saturation. After incubation at 4 °C for 24 h, the precipitated proteins were collected by centrifugation at 12,000 × g for 30 min at 4 °C. […] The expressed proteins were quantified using a BCA protein assay kit (TaKaRa Biotech, China). And their purities were determined by SDS-PAGE and found to be >95% in all cases.
Chitinase activities for SmChiA, HsChit1 and OfChi-h were determined using 4-methylumbelliferyl-N, N′-diacetyl-β-D-chitobioside (MU-β-(GlcNAc)2) (purchased from Sigma) as a substrate. […] After incubation at 30 °C for 20 min, 0.5 M sodium carbonate was added to the reaction mixture, and the fluorescence produced by the released 4-MU was quantified with a Varioskan Flash microplate reader (Thermo Fisher Scientific) using excitation and emission wavelengths of 360 and 450 nm, respectively. […]

Each structure is given as a SMILES string. Where two headings read alike, the source gives them in different places.

T1 sequence (P07254 24-563): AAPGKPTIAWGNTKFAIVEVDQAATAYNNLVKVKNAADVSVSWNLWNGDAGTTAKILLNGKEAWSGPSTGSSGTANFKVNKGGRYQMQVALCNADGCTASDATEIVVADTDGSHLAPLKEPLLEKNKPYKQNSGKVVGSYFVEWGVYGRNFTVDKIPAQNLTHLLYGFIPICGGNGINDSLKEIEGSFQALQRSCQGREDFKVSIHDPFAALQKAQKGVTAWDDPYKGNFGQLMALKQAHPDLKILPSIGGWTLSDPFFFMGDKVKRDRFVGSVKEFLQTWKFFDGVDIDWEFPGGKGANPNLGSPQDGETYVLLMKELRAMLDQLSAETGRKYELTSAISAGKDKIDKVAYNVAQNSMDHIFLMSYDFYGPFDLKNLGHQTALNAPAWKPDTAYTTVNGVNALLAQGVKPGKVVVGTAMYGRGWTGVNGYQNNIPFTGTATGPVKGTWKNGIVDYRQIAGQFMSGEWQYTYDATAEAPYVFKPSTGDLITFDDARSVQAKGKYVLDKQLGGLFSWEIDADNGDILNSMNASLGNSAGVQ
T2 sequence (Q4AE59 18-553): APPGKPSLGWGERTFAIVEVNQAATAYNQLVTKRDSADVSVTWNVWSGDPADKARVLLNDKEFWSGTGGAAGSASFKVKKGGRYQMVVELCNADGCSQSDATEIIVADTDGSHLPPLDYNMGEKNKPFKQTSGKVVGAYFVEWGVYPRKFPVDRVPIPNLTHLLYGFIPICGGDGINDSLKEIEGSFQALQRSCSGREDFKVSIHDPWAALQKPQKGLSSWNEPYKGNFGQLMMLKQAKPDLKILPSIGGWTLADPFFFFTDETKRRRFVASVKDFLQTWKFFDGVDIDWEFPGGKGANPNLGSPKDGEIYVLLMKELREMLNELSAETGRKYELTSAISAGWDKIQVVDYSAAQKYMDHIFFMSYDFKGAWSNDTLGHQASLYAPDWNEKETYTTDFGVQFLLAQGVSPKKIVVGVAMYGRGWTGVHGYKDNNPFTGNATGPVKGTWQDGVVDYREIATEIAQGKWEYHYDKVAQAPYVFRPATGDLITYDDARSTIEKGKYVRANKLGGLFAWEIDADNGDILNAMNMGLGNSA
T3 sequence (Q13231 22-466): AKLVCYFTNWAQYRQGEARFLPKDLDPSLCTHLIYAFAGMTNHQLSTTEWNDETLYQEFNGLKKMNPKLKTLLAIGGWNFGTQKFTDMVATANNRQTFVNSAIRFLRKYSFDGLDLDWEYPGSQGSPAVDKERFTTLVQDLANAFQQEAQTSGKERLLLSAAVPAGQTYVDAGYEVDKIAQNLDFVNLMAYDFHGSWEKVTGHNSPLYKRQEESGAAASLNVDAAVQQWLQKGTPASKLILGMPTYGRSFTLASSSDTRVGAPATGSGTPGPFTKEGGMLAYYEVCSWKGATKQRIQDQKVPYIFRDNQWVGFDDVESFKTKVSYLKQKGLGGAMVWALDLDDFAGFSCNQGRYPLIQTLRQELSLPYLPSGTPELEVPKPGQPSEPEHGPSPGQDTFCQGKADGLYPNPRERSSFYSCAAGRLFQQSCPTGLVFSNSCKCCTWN

In the case of `Cc1cccn2c(=O)c3cc(C(=O)NCc4cccnc4)c(N)nc3nc12` [5a, reference compound], the Ki on SmChiA was 6190 ± 155 nM; at OfChi-h [1], 860 nM.
For the molecule `Cc1cccn2c(=O)c3cc4c(=O)n(Cc5cccnc5)cnc4nc3nc12` [6a], the inhibition at 10 µM was found to be 98.5 ± 0.2% against SmChiA and 99.3 ± 0.2% against OfChi-h [2]. Further, the Ki stood at 126 nM at SmChiA, 58 nM at OfChi-h [2] and 295 nM at HsChit1. Moreover, on OfChi-h [2] (6a Ki versus 5a Ki), the “Improvement in inhibitory activity against OfChi-h (Ki) compared to 5a” value is “approximately 15 fold”.
In the case of `Cc1cccn2c(=O)c3cc4c(=O)n(C(C)c5cccnc5)cnc4nc3nc12` (stereo not shown) [6b], the inhibition at 10 µM against SmChiA turned out to be 88.7 ± 2.2%. Further, at OfChi-h [2], 10 µM produced 96.8 ± 0.1% inhibition and affinity was put at a Ki of 215 nM.
For `Cc1cccn2c(=O)c3cc4c(=O)n(Cc5cnccn5)cnc4nc3nc12` [6c], the figures for the inhibition at 10 µM at SmChiA and at OfChi-h [2] were 91.5 ± 0.8% and 95.3 ± 0.5%, respectively. In addition, the affinity on OfChi-h [2] corresponds to a Ki of 294 nM.
On the same counts, the results for `Cc1cccn2c(=O)c3cc4c(=O)n(Cc5ccccc5)cnc4nc3nc12` [6d] are 32 ± 1.4%, 72.5 ± 2.4% and 1420 nM.
The matching figures for `COc1cc(Cn2cnc3nc4nc5c(C)cccn5c(=O)c4cc3c2=O)cc(OC)c1OC` [6e]: 28.2 ± 4.8%, 96.2 ± 0.3% and 65 nM.
Regarding `COc1ccc(Cn2cnc3nc4nc5c(C)cccn5c(=O)c4cc3c2=O)cc1OC` [6f], the values for the inhibition at 10 µM against SmChiA and on OfChi-h [2] were 34.2 ± 2.5% and 69.3 ± 4.4%, respectively. On OfChi-h [2], this molecule returned an inhibition constant Ki of 747 nM.
With `COc1ccc(Cn2cnc3nc4nc5c(C)cccn5c(=O)c4cc3c2=O)cc1` [6g], the inhibition at 10 µM against SmChiA stood at 30.3 ± 2.7%. At OfChi-h [2], this molecule yielded an inhibition at 10 µM of 74 ± 2% and a Ki of 1030 nM.
`Cc1cccn2c(=O)c3cc4c(=O)n(Cc5cccc(N)c5)cnc4nc3nc12` [6h] had an inhibition at 10 µM against SmChiA of 37.9 ± 0.4%. For the same molecule, on OfChi-h [2], the inhibition at 10 µM came to 89 ± 1.5% and affinity was put at a Ki of 276 nM.
On to `Cc1cccn2c(=O)c3cc4c(=O)n(Cc5ccc(Cl)c(F)c5)cnc4nc3nc12` [6i], for which the figures for the inhibition at 10 µM against SmChiA and on OfChi-h [2] were 31.7 ± 0.2% and 42.9 ± 1%, respectively. On OfChi-h [2], affinity was put at a Ki of 2890 nM.
Regarding `Cc1cccn2c(=O)c3cc4c(=O)n(CCc5c[nH]c6ccccc56)cnc4nc3nc12` [6j], the inhibition at 10 µM at SmChiA came to 42.4 ± 4.1%; against OfChi-h [2] it was 49.6 ± 2.2%.
`Cc1cccn2c(=O)c3cc4c(=O)n(Cc5ccco5)cnc4nc3nc12` [6k]: the inhibition at 10 µM at SmChiA was 47.5 ± 1.2%; against OfChi-h [2] it was 86.8 ± 0.8%. At OfChi-h [2], this molecule gave a Ki of 1510 nM.
As to `C#CCn1cnc2nc3nc4c(C)cccn4c(=O)c3cc2c1=O` [6l], the inhibition at 10 µM was determined as 37.5 ± 2.2% at SmChiA and 81 ± 0.8% against OfChi-h [2]. At OfChi-h [2], this molecule had a Ki of 1340 nM.

The term Ki denotes a dissociation constant, usually derived from enzyme kinetics or from competition with a known ligand. Usually inhibition stands for the relative decrease from the control value, in per cent. A high value points to a strong effect.
